The values below come from patent publication US5840893A, “Compounds for treating infectious diseases” (priority 1996, dated 1998).

Each structure is given as a SMILES string. Where a name gives a salt, the structure may show the parent alone. Read-outs that look alike come from different tables or passages of the source.

The subject of series [1] is HIV-1. Briefly: Viral production in HIV-1-infected cultured monocytes at fixed 100 nM compound (Table II). Particulars: Human immunodeficiency virus 1, Monocyte, read-out: Viral Production (percentage of untreated control). Type of series: cell-based. The method, then: Alternatively, the compounds may all be compared for inhibition of HIV replication at a fixed concentration. Presented in Table II are compounds that were used at a concentration of 100 nM to inhibit the production of HIV-1 in cultured monocytes infected with HIV-1 10 days prior to assay (10 ng of p24/10^6 cells) . The production of HIV-1 in each treated culture is reported as percentage of untreated control.

For a further series, the system named is mice. Put plainly: Toxicity study: median lethal dose in mice, i.p. Type of series: in vivo. The method, then: The doses of compounds of the invention found to be lethal to 50% of the mice (LD50) were determined by intraperitoneal injection of groups of five animals with increasing doses of each compound. CNI-0294 was administered from 0, 2, 10, 20, 40, 80, 160, 320, 640, 1280 mg/kg in 0.5 ml of water/HCl; CNI-1594 at 0, 2.4, 5, 10, 20, 40, 80 mg/kg in 0.5 ml of water/HCl; CNI-1794 at 0, 20, 50, 80 mg/kg in 0.5 ml of water/HCl; and CNI-1894 at 0, 10, 20, 40, 80, 240, 480, 960 mg/kg in water/HCl. […] The percentage of animals in each group which died were utilized to calculate the LD50 by non-linear curve fitting with the Enzfit software (Elsevier Bioscience; Cambridge, UK) programmed with the Chou equation (Chou 1976, J Theor Biol 39:253-276)).
The compounds (FIGS. 4A-E), were screened for toxicity via a modified LD50 assay procedure as described above in an outbred strain of mice.

In series [2] the test system is HIV-1. Briefly: AZT and Compound No. 2 in combination on HIV-1 infected monocyte cultures (RT activity). Format: cell-based, HIV-1 in human monocyte cultures. Particulars: for RT activity: (-) No. 2. The method, then:
Primary human monocytes were obtained from peripheral blood by Ficoll-Hypaque centrifugation and adherence to plastic as described previously. Gartner S. P., et al., 1986, Science 233:215. Briefly, after Ficoll-Hypaque (Pharmacia) separation, PBMCs were washed 4 times with DMEM (the last wash was done at 800 rpm to remove platelets) and resuspended in monocyte culture medium [DMEM supplemented with 1 mM glutamine, 10% heat-inactivated human serum, 1% penicillin+streptomycin mixture (Sigma)] at a density of 6×10^6 cells/ml. Cells were seeded in 24-well plates (1 ml per well) and incubated for 2 h at 37° C., 5% CO2. Following incubation, cells were washed 3 times with DMEM to remove non-adherent cells and incubation was continued in monocyte culture medium supplemented with 250 U/ml human M-CSF (Sigma). Cells were allowed to mature for 7 days prior to infection with the monocyte-tropic strain, HIV-1ADA. Nuovo, G. J., et al., 1992, Diagn. Mol. Pathol. 1:98. Two hours after infection, cells were washed with medium and cultured in RPMI supplemented with 10% human serum. In experiments where PCR analysis was performed, virus was pretreated with RNAse-free DNAse (Boehinger-Mannheim)for 2 h at room temperature and then filtered though a 0.2 μm pore nitrocellulose filter prior to infection.
For the reverse transcriptase (RT) assay, 10 μl of culture supernatant was added to 40 μl of reaction mixture (final composition was 50 mM Tris-HCl, pH 7.8; 20 mM KCl; 5 mM MgCl2; 1 mM DTT; 0.1% Triton X-100; 0.2 OD/ml polyA; 0.2 OD/ml oligo(dT)12-18; and 40 μCi/ml ^3 H-dTTP (76 Ci/mmol, DuPont) and incubated 2 hr at 37° C. 5 μl of the reaction mixture was then spotted onto the DE 81 (Whatman) paper. Paper was air dried and washed 5 times with 5% Na2 HPO4, followed by rinsing with distilled water. After air drying, paper was put on a Flexi Filter plate (Packard), covered with scintillation fluid and counted in a Top Count Microplate Counter (Packard). Results are expressed as counts per minute in 1 ml of supernatant (cpm/ml).
In view of these premises, the effects on HIV-1 replication in human monocyte cultures of the various concentrations of AZT, alone or in combination with 100 nM Compound No. 2, were tested using the protocols of Sections 6.2.1 and 6.2.2. Drugs were added to the monocyte cultures together with HIV-1 at about 10^5 TCID/ml. The concentration of drugs was maintained on refeeding. HIV-1 replication was assessed by assay of the supernatant for reverse transcriptase activity. The results are expressed as mean±std. dev. (cpmx10^-3) in Table V.

The next series is described as follows: in vitro. Type of series: in vitro ADME, mouse (ND4 Swiss Webster). Particulars: for number of metabolites: mouse liver post-mitochondrial supernatant, NADPH. How it is done: Several female ND4 Swiss Webster mice were euthanized by carbon dioxide inhalation and the livers excised and rinsed with ice cold phosphate buffered saline (pH 7.4). The livers were minced, gently homogenized in 50 mM phosphate buffer (pH 7.4) with a Dounce homogenizer, and centrifuged at 9600×g for 20 min. The post-mitochondrial supernatant was kept, glycerol added to 20%, and frozen at -70° C. in 1.0 ml aliquots until used. For each incubation, 1.0 ml of a 1.0 mg/ml drug solution was added to 3.0 ml of 50 mM phosphate buffer (pH 7.4), 1.0 ml of 2 mg/ml NADPH in 50 mM phosphate (pH 7.4), and 1.0 ml of the post-mitochondrial supernatant. Five hundred μl of each incubate was then immediately transferred to an ice-cold tube to provide the zero-time sample, and addition 500 μl aliquots removed to ice-cold tubes at 8, 15, 30, and 60 min. The samples were then extracted, and analyzed by HPLC as described in section 7.1. Control incubations were also performed where drug or post-mitochondrial supernatant was omitted. […] Peaks in the CNI compound incubations which increased over time, and were not present in control samples lacking the enzyme preparation were treated as putative metabolites.

Series [3] deals with Plasmodium falciparum clone Dd2. Briefly: Antimalarial activity in vitro, hypoxanthine incorporation, clone Dd2. Type of series: cell-based. The conditions noted are these: for IC50: Plasmodium falciparum, DD2, read-out: IC50 ± standard deviation. The method, then:
The antimalarial activity of the compounds was determined essentially as described in Desjardins et al. supra. Fifty Al of various concentrations of a compound of the invention, chloroquine, or pyrimethamine were added to the wells of microtiter plates, followed by 200 Al of ring-stage, synchronized, P. falciparum-infected erythrocytes (final hematocrit=1.5%, final parasitemia=1-5%). The plates were incubated for 24 hr in a candle jar kept at 37° C., and then 25 μl of [^3 H]-hypoxanthine (Amersham, Arlington Heights, Ill.; 2.5 μl Ci/well) was added. The plates were then incubated for a further 24 hr, before harvesting onto Unifilter-96 GF/C filter-microplates (Packard; Meriden, Conn.). Twenty-five μl of Microscint scintillation fluid (Packard) was added to each well of the filter-microplate, which was subsequently counted in a Top-count microplate scintillation counter (Packard). The percent of [^3 H] -hypoxanthine uptake relative to control infect-erythrocytes was used to determine the IC50 value for the compounds by non-linear regression for LD50 determination.
The Dd2 clone of P. falciparum, which was both chloroquine and pyrimethamine resistant, was utilized to compare the antimalarial activity of the remaining CNI compounds (Table VIII).

Series [4] has as its system HIV-1. Put plainly: Inhibition of HIV-1 replication in cultured macrophages (Table I). Type of series: cell-based. Particulars: Human immunodeficiency virus 1, Macrophage; 50% inhibition of viral growth, RT or p24, macrophages. How it is done:
A quantitative measurement of the activity of the compounds of the invention to block the replication of HIV-1 in non-dividing cells can be determined by culture of a macrophage-tropic strain of HIV-1 on peripheral blood-derived macrophages. The cells are cultured for 5-6 days prior to infection in a medium consisting of DMEM supplemented with 10% type A/B human serum and 200 U/ml Macrophage Colony Stimulating Factor, with half the medium changed after 3 days, to reach a density of about 10^6 cells per 5 ml well. A macrophage-tropic viral stock may be grown on these cells. The concentration of infectious particles in the stock is estimated by measurement of p24 antigen concentration.
To test the effect of compounds of the invention on HIV- 1 infection in the above-described culture system, the medium is removed and replaced with medium containing HIV-1 at a concentration of 1 ng of p24 (10^4 TCID50 /ml (TCID=tissue culture infectious doses)) and a known concentration of the compound of the invention (the inhibitor). After 24 hours, the cultures are washed to remove non-adherent virus and the culture is re-fed with medium containing the inhibitor at the desired concentration. The amount of replication of HIV-1 is estimated by an assay of the reverse transcriptase activity or by an assay of the concentration of p24 antigen in the culture medium every 2-3 days throughout the post-infection period. In a preferred embodiment the anti-HIV potency of the candidate drug is measured by comparison of the concentration of reverse transcriptase (RT) or of p24 antigen in the medium of the treated and control cultures at the time of the peak of these values in non-treated control cultures, that is about day 5 or 6 post-infection. Repetition at various levels of inhibitor allows for the calculation of the concentration of inhibitor that achieves 50% inhibition of viral growth, IC50. Table I discloses the IC50 of various inhibitors.

For series [5] the following is noted: i.p., 50 mg/kg, water.
Experimental: (§1) Standard addition curves for each test compound were constructed by adding increased amounts of drug to mouse or human A^+ plasma (Long Island Blood Services; Melville, N.Y.). […] The eluted sample was reduced to dryness in a rotary evaporator and resuspended in 1.0 ml Buffer A.
(§2) Female ND4 Swiss Webster mice (21-24 g) were obtained from Harlan Sprague Dawley (Indianapolis, Ind.) and randomly placed in groups of five in cages with free access to food and water. […] The other CNI compounds were administered intraperitoneally or by oral gavage as a solution in water titrated with sufficient HCl to dissolve the drug. At various time points, ranging from 5 min to 4 days, a single group of animals was euthanized by carbon dioxide inhalation and bled by cardiac puncture using heparin as an anticoagulant. The blood from the five mice in the group was pooled and centrifuged at 14000×g for 10 min. The volume of plasma was measured, and equal volume of Buffer A added, and the mixture extracted and analyzed as described above, except that the dried eluates were resuspended in 200 μl Buffer A and 100 μl was injected onto the high performance liquid chromatography (HPLC) system.
(§3) The area under the plasma concentration-time curve (AUC) was determined, and bioavailability was measured as AUCoral /AUCi.p.. […] The volume of distribution (VD) was calculated as dose/B, and the total clearance rate (Cltot) calculated as β*VD. Cmax and tmax are the maximal plasma concentration and time of this measurement, respectively.
The nature of a further series: in vivo. The conditions noted are these: mouse, plasma, ip, 50 mg/kg.
[6] abbreviates: 100 nM compound, monocytes infected 10 days prior, 10 ng p24/10^6 cells.

Experimental for in vivo: as §1, §2, §3

As to `CC(=O)c1cc(NC(=N)NC(=N)N)cc(C(C)=O)c1` [Compound No. 12, N-(3,5-diacetylphenyl)biguanide hydrochloride], the activity at 0.1 µM in the series on HIV-1 [1] (setting [6]) turned out to be 12%.
Regarding `CC(=O)c1ccc(Nc2cc(C)nc(N)n2)cc1` [Compound No. 17, 2-amino-4-(4-acetylphenyl)amino-6-methylpyrimidine], the activity at 0.1 µM in the series on HIV-1 [1] is 20%. In the series on mice, the “LD50 (median lethal dose)” value came out at 48.93 ± 0.12 mg/kg; the “LD50 compared with CNI-1594” value is given as “identical to that for CNI-1594”; the “signs and time of toxic reactions / death” value was “suggested a lethal neurotoxicity”.
For `Cc1cn([C@H]2C[C@H](N=[N+]=[N-])[C@@H](CO)O2)c(=O)[nH]c1=O` [AZT], the inhibition at 10 pM in the series with HIV-1 [2] (Human immunodeficiency virus 1, Monocyte, 264 h, read-out: reduction in RT activity) was about 20%. The RT activity with HIV-1 [2] (day-7, AZT 10 pM) amounted to 0.92 ± 0.21 cpmx10^-3; with HIV-1 [2] (day-7, AZT 100 pM), 0.79 ± 0.14 cpmx10^-3; with HIV-1 [2] (day-7, AZT 1 nM), 0.60 ± 0.28 cpmx10^-3; in the series on HIV-1 [2] (day-7, AZT 10 nM), 0.05 ± 0.02 cpmx10^-3; with HIV-1 [2] (day-11, AZT 10 pM), 1.63 ± 0.81 cpmx10^-3; with HIV-1 [2] (day-11, AZT 100 pM), 1.34 ± 0.59 cpmx10^-3. Further, the RT activity is 1.07 ± 0.49 cpmx10^-3 in the series with HIV-1 [2] (day-11, AZT 1 nM) and 0.08 ± 0.03 cpmx10^-3 in the series with HIV-1 [2] (day-11, AZT 10 nM).
Regarding `CC(=O)c1cccc(C(C)=O)c1N` [2,6-diacetylaniline], in the series on HIV-1 [1] (setting [6]), the activity at 0.1 µM was 28%.
Turning to `N=C(N)c1ccc(OCCCCCOc2ccc(C(=N)N)cc2)cc1` [pentamidine, reference compound], the number of metabolites entry in the series “in vitro” was “seven”.
Consider `CC(=O)c1cc(Nc2nc(N)nc(N)n2)cc(C(C)=O)c1` [Compound No. 13, 2-(3,5-diacetylphenyl)amino-4,6-diamino-1,3,5-triazine], for which the activity at 0.1 µM with HIV-1 [1] (setting [6]) was 14%.
What is called IC50 is the concentration that gives 50% inhibition. Take `Cc1cc(Nc2ccccc2)nc(N)n1` [Compound No. 45, 4-phenylamino-2-amino-6-methylpyrimidine]: in series [3], the IC50 was 25.1 ± 0.72 µM.
Regarding `CC(=O)c1cccc(Nc2cc(C)[n+](C)c(N)n2)c1` [Compound No. 14, 2-amino-4-(3-acetylphenyl)amino-1,6-dimethylpyrimidinium iodide], in the series on HIV-1 [4], the IC50 was determined as 0.01 µM.
For `CC(=O)c1cncc(C(C)=O)c1` [3,5-diacetylpyridine], the activity at 0.1 µM in the series on HIV-1 [1] (setting [6]) was 58%.
What is called CL/F is the apparent clearance, not corrected for the fraction that reaches the circulation. On to `CC(=O)c1cc(N)cc(C(C)=O)c1` [CNI-1894, 3,5-diacetylaniline], for which, in the series with HIV-1 [1] (setting [6]), the activity at 0.1 µM was 20%. In addition, in the series on mice, the “LD50 (median lethal dose)” value is 258.64 ± 1.37 mg/kg; the “signs and time of toxic reactions / death” value was “died 2-3 days post injection, and showed no sign of any immediate toxicity”; the tolerability entry was “reasonably well tolerated”. Further, the number of metabolites result in “in vitro” was “one minor and one major metabolite”. Also, the metabolised at 1 h in “in vitro” (mouse, liver post-mitochondrial supernatant, 60 min incubation, by peak area, read-out: drug altered (metabolic conversion)) was determined as 17.3%. Also, in series [3], the concentration for half-maximal inhibition (IC50) is over 200 µM. Besides, in series [3] (clone Dd2, 200 μM), the “antimalarial activity at the highest concentration tested” value was “inactive at the highest concentration tested”. In addition, in series [5], the “A (zero time intercept, distribution phase)” value came out at 14.93 µg/mL; the “B (zero time intercept, elimination phase)” value amounted to 0.15 µg/mL; the VD was 6.60 L; the t1/2α was found to be 0.58 h. In series [5], this compound gave a t1/2β of 23.10 h and a α of 1.19 h⁻¹. For the same compound, in the series “in vivo”, the apparent clearance CL/F is 3.3 mL/min and the k el was 8.33e-06 s⁻¹.
